Data on eight molecules can be found in ChEMBL document CHEMBL1141914.

This assay deals with T1, Prostaglandin G/H synthase 1 (Ovis aries) (UniProt P05979).
T1 sequence (whole entry): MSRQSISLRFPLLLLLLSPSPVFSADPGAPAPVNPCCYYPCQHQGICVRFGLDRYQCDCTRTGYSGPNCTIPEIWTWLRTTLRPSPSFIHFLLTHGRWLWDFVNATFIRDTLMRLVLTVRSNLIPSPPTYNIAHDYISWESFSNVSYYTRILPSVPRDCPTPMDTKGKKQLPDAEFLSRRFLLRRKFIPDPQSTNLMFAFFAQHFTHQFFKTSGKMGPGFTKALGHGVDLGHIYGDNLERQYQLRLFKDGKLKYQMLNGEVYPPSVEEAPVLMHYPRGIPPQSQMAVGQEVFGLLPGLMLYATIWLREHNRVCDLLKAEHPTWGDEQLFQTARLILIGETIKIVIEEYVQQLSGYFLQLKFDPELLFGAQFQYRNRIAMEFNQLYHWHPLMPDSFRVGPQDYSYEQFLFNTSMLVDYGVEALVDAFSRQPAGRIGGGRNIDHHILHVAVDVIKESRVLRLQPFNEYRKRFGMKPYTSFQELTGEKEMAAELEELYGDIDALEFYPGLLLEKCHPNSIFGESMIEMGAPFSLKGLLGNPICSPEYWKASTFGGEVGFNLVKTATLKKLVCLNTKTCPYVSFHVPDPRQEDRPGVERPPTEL
As to the kind of experiment: Percent inhibition against Prostaglandin G/H synthase 1 from ram seminal vesicles at 100 uM.

For orientation: inhibition means the change of the read-out against control, counted positive when it falls. A low value points to a weak effect. `COc1cc(/C=C/c2cc(/C=C/c3ccc(O)c(OC)c3)[nH]n2)ccc1O` showed an inhibition of 87%.

In turn, `COc1cc(/C=C/c2cc(/C=C/c3ccc(O)cc3)on2)ccc1O` displayed an inhibition of 47.4%.

In the case of `COc1cc(/C=C/C(O)=C/C(=O)/C=C/c2ccc(O)cc2)ccc1O`, the inhibition was 67.8%.

Consider `Oc1ccc(/C=C/c2cc(/C=C/c3ccc(O)cc3)[nH]n2)cc1`, for which the inhibition is 44.4%.

`COc1cc(/C=C/C(=O)CC(=O)/C=C/c2ccc(O)c(OC)c2)ccc1O` registered an inhibition of 80.5%.

`COc1cc(/C=C/c2cc(/C=C/c3ccc(O)cc3)[nH]n2)ccc1O` came in with an inhibition of 73.9%.

In turn, `O=C(/C=C/c1ccc(O)cc1)CC(=O)/C=C/c1ccc(O)cc1` registered an inhibition of 41.7%.

For the molecule `COc1cc(/C=C/c2cc(/C=C/c3ccc(O)c(OC)c3)on2)ccc1O`, the inhibition was 80.8%.
